“And” between values parts separate entries of the source, which are not always exact repeats. Equal values may be shown once.

The target in the experiment is T1, Parkin ligase (Homo sapiens, UniProt O60260).
T1 sequence (O60260 1-465): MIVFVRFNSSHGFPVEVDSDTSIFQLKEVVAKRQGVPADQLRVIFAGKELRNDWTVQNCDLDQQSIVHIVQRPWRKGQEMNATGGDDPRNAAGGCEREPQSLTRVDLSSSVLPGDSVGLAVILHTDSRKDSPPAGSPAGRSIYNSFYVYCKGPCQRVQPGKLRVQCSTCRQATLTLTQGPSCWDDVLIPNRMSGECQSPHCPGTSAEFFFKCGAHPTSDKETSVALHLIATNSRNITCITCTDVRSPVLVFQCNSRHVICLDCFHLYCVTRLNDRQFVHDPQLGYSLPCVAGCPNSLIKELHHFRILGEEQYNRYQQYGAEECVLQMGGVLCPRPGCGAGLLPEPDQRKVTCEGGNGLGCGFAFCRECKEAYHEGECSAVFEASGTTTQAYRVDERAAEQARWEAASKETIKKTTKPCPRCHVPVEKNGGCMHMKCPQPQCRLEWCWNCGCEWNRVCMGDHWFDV
The experiment is described as follows: Activity-Based Probe Assay using Ubiquitin vinyl sulfone probe (TR-FRET). The format is biochemical. The conditions noted are these: heat activated Parkin, HA-Ub-VS probe, activation EC50; read-out: Probe Assay EC50 (μM) [Example 2]. As for the experimental part:
An Ubiquitin vinyl sulfone probe can be used that irreversibly binds to the active site cysteine of Parkin ligase. Covalent attachment of the probe to the Parkin can be monitored by TR-FRET. Candidate activator compounds can be identified by increasing the activity of Parkin ligase due to an increase in TR-FRET signal. Screening for activating compounds can be distinguished from the controls as follows: 100% activation signal=Heat activated Parkin+100 nM control activator in DMSO. 0% activation signal=Heat activated Parkin+DMSO only. Parkin activators can be identified by an increase of the 0% activation signal TR-FRET signal. Assay Conditions: Materials: • Assay Plate: White 384 well plate (Corning 3572) • Enzyme: Parkin-His tagged 203 μM (10.5 mg/ml) • Probe: Ubiquitin vinyl-sulfone (HA-Ub-VS Boston Biochem U-212) • DMSO: DMSO (Sigma cat #D4540-100ML) • Reaction Buffer: 50 mM HEPES (pH 8.5), 150 mM NaCl, 0.01% Tween 20, 0.1% BSA • Detection Buffer: 50 mM HEPES (pH 8.5), 150 mM NaCl, 0.01% Tween 20, 0.1% BSA, 800 mM KF • Detection Reagent A: 2.6 nM Anti-6HIS-Eu cryptate and 40 nM Anti-HA-XL665 in detection buffer • Eu cryptate: Anti-6HIS-Eu cryptate (CisBio 61HISKLA) • XL665: Anti-HA-XL665 (CisBio 610HAXLA) Enzyme Reaction (15 Min Pre Incubation Parkin with Activator Only) • Parkin: 40 nM • HA-Ub-VS Probe: 70 nM • Activator/DMSO: 2× Activator/2% DMSO Reaction time: 60 minutes Temperature: 22° C. Total volume: 10 μl reaction Detection Reaction Take […] of Enzyme Reaction above and add 10 μl detection Reagent A under the following conditions: • Reaction time: 60 minutes • Temperature: 22° C. • Total volume: 20 μl
Assay procedure (Using HP D-300 compound dispenser and Bravo for the operation):
1) Heat activate Parkin in reaction buffer (500 μl/1.5 ml tube: Eppendorf Thermomixer 5 minutes, 400 rpm at 58° C. and put on ice until needed).
2) Load assay plate wells with 4.8 μl 84.5 nM Parkin in reaction buffer by use of Bravo.
3) Deliver 0.2 μl 200× activator candidates in DMSO by use of HP D-300 compound dispenser. Highest 200× concentration=[…] and then twofold dilutions.
4) Spin 1000 rpm, 2 minutes, at room temp.
5) Incubate plate for 15 minutes at room temp.
6) Add 5 μl 140 nM HA-Ub-VS Probe in reaction buffer by use of Bravo.
7) Spin 1000 rpm, 2 minutes, at room temp.
8) Incubate plate for 60 minutes at room temp.
9) Add 10 μl 2.6 nM Anti-6HIS-Eu cryptate and 40 nM […] in detection buffer.
10) Spin 1000 rpm, 2 minutes, at room temp.
11) Incubate plate for 60 minutes at room temp.
12) Read plates on Perkin Elmer Envision instrument with the following parameters:
LANCE dual laser protocol loaded into the Envision® software
Top Mirror: LANCE/DELFIA Duel/Bias (Bar code 446)
Emission Filter: APC 665 EM (Bar code 205)
2nd Emission Filter: Europium 615 EM (Bar code 203)
Read 655 nm (channel 1) and 615 nm (channel 2) wavelengths on Envision®
Data Analysis: The Data can be read in CSV files. There are two tables in those CSV files, which are the values of 655 nm (channel 1) and 615 nm (channel 2) wavelengths respectively. The data is converted to an HTRF Ratio=(Channel 1/Channel 2)*10,000
The average of all the 0 μM controls (DMSO only)=BKGD (Background—0% activation). Subtract BKGD from each HTRF Ratio value=HTRF−BKGD. The average of all the […] 100 nM control activator in DMSO controls=Max (100% activation). The following equation is then used to calculate % Activation for each well/candidate as follows: % Activation=(HTRF−BKGD/Max)*100.
Graphpad Prism was used with Transform X values: X=Log(X) and nonlinear regression (dose-response-stimulation): Log(agonist) vs Response−variable slope (four parameters) with constrains set to Bottom=0 and Top=100.
The Activity-Based Probe Assay was performed with various compounds in Tables 1, 2, 3A and 3B.
On to `Cc1ccccc1C(=O)Nc1nc(NC(=O)c2ccncc2)nn1-c1ccc(C(F)(F)F)cc1` [Compound 85], for which the EC50 came out at 3 µM.
The value for `Cc1ccccc1C(=O)Nc1nc(NC(=O)[C@@H]2C[C@@H](F)CN2)nn1-c1ccccc1` [Compound 4] was 38 µM and 24 µM; that for `Cc1ccccc1C(=O)Nc1nc(-c2ncccc2C)nn1-c1ccc(C(F)(F)F)cc1` [Compound 141] was 1 µM; that for `Cc1cnccc1C(=O)Nc1nc(NC(=O)c2ccncc2C)n(-c2ccccc2)n1` [Compound 99] was 13 µM.
The value for `Cc1ccccc1C(=O)Nc1nc(NCc2cccc(Cl)c2)nn1-c1ccc(OC(F)(F)F)cc1` [Compound 112] was 1 µM; that for `Cc1ccccc1C(=O)Nc1nc(-c2ncccc2C)nn1-c1ccc(OC(F)(F)F)cc1` [Compound 139] was 0.9 µM.
For `Cc1ccccc1C(=O)Nc1nc(NC(=O)c2ccc(N=[N+]=N)cc2)n(-c2ccc(OC(F)(F)F)cc2)n1` [Compound 74] the value was 0.9 µM; for `Cc1ccccc1C(=O)Nc1nc(NC(=O)c2cccnc2)nn1-c1ccc(C(F)(F)F)cc1` [Compound 94], 4 µM; for `Cc1ccccc1C(=O)Nc1nc(NC(=O)c2cccc(N=[N+]=[N-])c2)n(-c2ccc(OC(F)(F)F)cc2)n1` [Compound 79], 1 µM.
Regarding `O=C(Nc1nc(Nc2cccc3ccccc23)n(-c2ccccc2)n1)c1ccccc1` [Compound 52], the concentration for a half-maximal effect (EC50) came out at 61 µM.
The value for `O=C(Nc1nc(NC(=O)C2CCCNC2)n(-c2ccccc2)n1)C1CCCNC1` (centres unmarked) [Compound 56] was greater than 100 µM.
As for `Cc1ccccc1C(=O)Nc1nc(N[C@@H](C)c2ccccc2)nn1-c1ccccc1` [Compound 115], the EC50 came to 3 µM.
The value for `Cc1ccccc1C(=O)Nc1nc(NC(=O)c2ccccc2C)n(-c2ccc(N3CCOCC3)cc2)n1` [Compound 54] was 10 µM; that for `Cc1ccccc1C(=O)Nc1nc(-c2cn(C)cn2)nn1-c1ccccc1` [Compound 125] was greater than 100 µM.
For `Cc1ccccc1C(=O)Nc1nc(NCCc2ccccc2)nn1-c1ccccc1` [Compound 91] the value was 2 µM.
For `Cc1ccccc1C(=O)Nc1nc(NC(=O)c2ccccc2C)n(-c2ccc(N3CCNCC3)cc2)n1` [Compound 57] the value was greater than 100 µM; for `Cc1ccccc1C(=O)Nc1nc(N[C@@H](C)c2ccccc2)nn1-c1ccc(OC(F)(F)F)cc1` [Compound 117], 2 µM; for `O=C(Nc1nc(NC(=O)c2ccnc(O)c2)n(-c2ccccc2)n1)c1ccnc(O)c1` [Compound 96], 11 µM and 8 µM.
As for `Cc1ccccc1C(=O)Nc1nc(N[C@H](C)c2ccccc2)nn1-c1ccccc1` [Compound 114], the EC50 is 2 µM.
For `Cc1ccccc1C(=O)Nc1nc(-c2cocn2)nn1-c1ccccc1` [Compound 140] the value was greater than 100 µM.
`Cc1ccccc1C(=O)Nc1nc(NC(=O)c2cccc(N=[N+]=[N-])c2)nn1-c1ccccc1` [Compound 66]: the EC50 was 8 µM.
The value for `O=C(Nc1nc(NC(=O)C2CCCCN2)n(-c2ccccc2)n1)C1CCCCN1` (centres unmarked) [Compound 49] was greater than 100 µM; that for `Cc1ccccc1C(=O)Nc1nc(NC(=O)c2ccncc2)nn1-c1ccc(OC(F)(F)F)cc1` [Compound 80] was 3 µM; that for `Cc1ccccc1C(=O)Nc1nc(NCCc2ccccc2)nn1-c1ccc(OC(F)(F)F)cc1` [Compound 106] was greater than 100 µM.
For `Cc1ccccc1C(=O)Nc1nc(NCCc2ccccc2)nn1-c1ccc(C(F)(F)F)cc1` [Compound 103] the value was 1 µM.
For `Cc1ccccc1C(=O)Nc1nc(NCCc2ccccn2)nn1-c1ccccc1` [Compound 97] the value was 14 µM; for `Cc1c(C(=O)Nc2nc(NC(=O)c3ccnc(F)c3C)n(-c3ccccc3)n2)ccnc1F` [Compound 98], 5 µM; for `O=C(Nc1ccccc1)c1nc(C(=O)Nc2ccccc2)n(-c2ccccc2)n1` [Compound 90], greater than 100 µM.
In the case of `Cc1ccccc1C(=O)Nc1nc(-c2ccc(F)cn2)nn1-c1ccccc1` [Compound 50], the EC50 is greater than 100 µM.

The values above are taken from patent US10889553B2, “Asymmetric triazole benzamide derivatives and the compositions and methods of treatment regarding the same” (NysnoBio Ireland DAC, priority 2017, dated 2021).
